What follows are compounds tested on NCI-H295R (assay: IC50 (antiproliferative, ATP content)). Details: 48 h.
Procedure, shortened: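 Serum-free ITS-supplemented DMEM was used to seed 1500 adrenocortical carcinoma cells per well in 1536-well plates, which were cultured overnight. Eight final concentrations of each library compound, from 0.6 nM to 46 µM, were added by pin transfer, followed by 48 h at 37 °C in 5% CO2 and a CellTiter-Glo ATP read after 20 min at room temperature. Luminescence was set against vehicle and positive-control wells, and the IC50 was obtained by logistic curve fitting. Any compound with no concentration response was entered as above the top dose.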

Compound	IC50
Clc1ccccc1Cl	> 46 µM
CS(=O)(=O)Nc1ccc([N+](=O)[O-])cc1Oc1ccccc1	> 46 µM
[H][C@]1(CC3)C[C@@H](OC(C(C5=CC=CC=C5)(O)C4=CC=CC=C4)=O)C[C@]3([H])[N@+]21CCCC2.[Cl-]	> 46 µM
C#CCN(C)[C@H](C)Cc1ccccc1.Cl	> 46 µM
N=C(N)NCCCC[C@@H]1NC(=O)CCSSC[C@@H](C(N)=O)NC(=O)[C@@H]2CCCN2C(=O)[C@H](Cc2c[nH]c3ccccc23)NC(=O)[C@H](CC(=O)O)NC(=O)CNC1=O	> 46 µM
CC(C)CC(=O)N[C@H](C(=O)N[C@H](C(=O)N[C@@H](CC(C)C)[C@@H](O)CC(=O)N[C@@H](C)C(=O)N[C@@H](CC(C)C)[C@@H](O)CC(=O)O)C(C)C)C(C)C	> 46 µM
CCCC1CCCCN1 (centres undefined)	> 46 µM
Oc1ncnc2[nH]ncc12	> 46 µM
O=c1[nH]c(=O)n([C@H]2C[C@H](O)[C@@H](CO)O2)cc1Br	> 46 µM
CC(C)[N+](C)(C)CC(O)COc1cccc2ccccc12.[Cl-] (centres undefined)	> 46 µM
c1ccc(-c2nc[nH]c2-c2ccccc2)cc1	> 46 µM
NCCCNCCSP(=O)(O)O	> 46 µM
CO[C@H]1C=CO[C@@]2(C)Oc3c(C)c(O)c4c(c3C2=O)C2=NC3(CCN(CC(C)C)CC3)NC2=C(NC(=O)/C(C)=C\C=C\[C@H](C)[C@H](O)[C@@H](C)[C@@H](O)[C@@H](C)[C@H](OC(C)=O)[C@@H]1C)C4=O	> 46 µM
Nc1nc(=O)c(Br)c(-c2ccccc2)[nH]1	> 46 µM
NS(=O)(=O)c1cc(Cl)c(Cl)c(S(N)(=O)=O)c1	> 46 µM
COc1ccc(C(=O)N2CCCC2=O)cc1	> 46 µM
CC(C)(C)NCC(O)COc1cccc2c1C[C@H](O)[C@H](O)C2 (some centres undefined)	> 46 µM
CC1(C)O[C@@H]2CC3C4C[C@H](F)C5=CC(=O)C=C[C@]5(C)C4[C@@H](O)C[C@]3(C)[C@]2(C(=O)CO)O1 (some centres undefined)	> 46 µM
CN1CCC[C@@H]1Cc1c[nH]c2ccc(CCS(=O)(=O)c3ccccc3)cc12	> 46 µM
CC(C)(O)C(Cl)(Cl)Cl	> 46 µM

Compound	IC50
COc1ccc(/C=N/NC(=O)c2ccncc2)cc1OC	> 46 µM
CC(=O)[C@@]3(O)CC[C@H]4[C@@H]5/C=C(/Cl)\C2=C\C(=O)[C@@H]1C[C@@H]1[C@]2(C)[C@H]5CC[C@]34C	> 46 µM
Cc1cnc(C(=O)O)c[n+]1[O-]	> 46 µM
O=C1N=C2SCCN2C(=O)C1Cc1ccc(Cl)cc1 (centres undefined)	> 46 µM
NC1=NC=NC2=C1N=CN2[C@@H]3O[C@H](COP(OP(OC[C@H]4O[C@@H]([N@@+]5=CC=CC(C(N)=O)=C5)[C@H](O)[C@@H]4O)([O-])=O)(O)=O)[C@@H](O)[C@H]3O	> 46 µM
COc1ccc2[nH]c(S(=O)Cc3ncc(C)c(OC)c3C)nc2n1 (centres undefined)	> 46 µM
CC(C)C(=O)Nc1ccc([N+](=O)[O-])c(C(F)(F)F)c1	> 46 µM
CCCN1C[C@H](CSC)C[C@@H]2c3cccc4[nH]cc(c34)C[C@H]21.CS(=O)(=O)O	> 46 µM
CCCCCCCCCCCCCCCCO	> 46 µM
COc1ccc(C[C@@H](C)NC[C@H](O)c2ccc(O)c(NC=O)c2)cc1.COc1ccc(C[C@@H](C)NC[C@H](O)c2ccc(O)c(NC=O)c2)cc1.O=C(O)/C=C/C(=O)O	> 46 µM
COc1ccc2c(=O)c(C)c(-c3ccccc3)oc2c1CN(C)C.Cl	> 46 µM
COc1cccc([C@@]2(O)CCCC[C@@H]2CN(C)C)c1	> 46 µM
Cc1ccc(C(=O)c2ccc(CC(=O)[O-])n2C)cc1.O.O.[Na+]	> 46 µM
N=C(N)NN.N=C(N)NN.O=S(=O)(O)O	> 46 µM
C[C@H]1C(=O)NC2=Nc3cccc(Cl)c3CN21	> 46 µM
CCN(CC)CCNC(=O)COc1ccc(OC)cc1.Cl	> 46 µM
CC(CN1c2ccccc2Sc2cccnc21)N(C)C.Cl (centres undefined)	> 46 µM
O=C(O)c1ccc2[nH]cc(CCCCN3CC=C(c4ccccc4)CC3)c2c1	> 46 µM
Oc1ccc(Cl)cc1Cc1ccccc1	> 46 µM
